Measurements as given in patent US11505543B2, “4-oxo-3,4-dihydroquinazoline compounds as inhibitors of human immunodeficiency virus replication” (VIIV HEALTHCARE UK (NO.5) LIMITED, priority 2018, dated 2022).
pEC50: −log10 of the molar value.

What was measured:
[1] = system: recombinant NL4-3 virus (nef section replaced with Renilla luciferase gene) in MT-2 cells; test: HIV cell culture assay (antiviral activity, luciferase readout); assay type: cell-based; settings: Renilla, NL43, MT-2 cells infected for 4-5 days with recombinant NL4-3 Renilla luciferase virus, serial dilutions of compound
Procedure, shortened: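 EC50 was derived by median-effect curve fitting of luciferase activity. The signal comes from MT-2 cells infected for 4–5 days with 293T-produced NL4-3 reporter virus, nef partly replaced by Renilla luciferase, in the presence of serially diluted compound.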

[2] = Compound cytotoxicity, XTT-based colorimetric assay; assay type: cell-based; settings: human, uninfected MT2 cells, day 4, XTT
Procedure, shortened: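 Run under the antiviral-assay protocol but without virus. Viability was read on day 4 and CC50 values were derived from the readout.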

Row | Structure (SMILES) | pEC50 [1] | CC50 at 4 day [2] [nM]
1 | O=C(Cc1ccn(C2CC2)n1)N[C@@H](Cc1cc(F)cc(F)c1)c1nc2cc(-c3ccccc3F)ccc2c(=O)n1-c1ccc(Cl)c2c(NS(=O)(=O)C3CC3)nn(CC(F)F)c12 [Example 139, (S)-N-(1-(3-(4-chloro-3-(cyclopropanesulfonamido)-1-(2,2-difluoroethyl)-1H-indazol-7-yl)-7-(2-fluorophenyl)-4-oxo-3,4-dihydroquinazolin-2-yl)-2-(3,5-difluorophenyl)ethyl)-2-(1-cyclopropyl-1H-pyrazol-3-yl)acetamide] | 9.24 | > 500
2 | CC(C)n1ccc(CC(=O)N[C@@H](Cc2cc(F)cc(F)c2)c2nc3cc(-c4ccccc4F)ccc3c(=O)n2-c2ccc(Cl)c3c(NS(=O)(=O)C4CC4)nn(CC(F)F)c23)n1 [Example 140, (S)-N-(1-(3-(4-chloro-3-(cyclopropanesulfonamido)-1-(2,2-difluoroethyl)-1H-indazol-7-yl)-7-(2-fluorophenyl)-4-oxo-3,4-dihydroquinazolin-2-yl)-2-(3,5-difluorophenyl)ethyl)-2-(1-isopropyl-1H-pyrazol-3-yl)acetamide] | 9.46 | > 500
3 | Cc1cc(C)nc(-c2ccc3c(=O)n(-c4ccc(Cl)c5c(NS(C)(=O)=O)nn(C)c45)c([C@H](Cc4cc(F)cc(F)c4)NC(=O)Cn4nc(C(F)(F)F)c5c4C(F)(F)[C@@H]4C[C@H]54)nc3c2)n1 [Example 141, N-((S)-1-(3-(4-chloro-1-methyl-3-(methylsulfonamido)-1H-indazol-7-yl)-7-(4,6-dimethylpyrimidin-2-yl)-4-oxo-3,4-dihydroquinazolin-2-yl)-2-(3,5-difluorophenyl)ethyl)-2-((3bS,4aR)-5,5-difluoro-3-(trifluoromethyl)-3b,4,4a,5-tetrahydro-1H-cyclopropa[3,4]cyclopenta[1,2-c]pyrazol-1-yl)acetamide] | 9.96 | > 500
4 | COc1ccccc1-c1ccc2c(=O)n(-c3ccc(S(=O)(=O)N4CCOCC4)cc3)c([C@H](Cc3cc(F)cc(F)c3)NC(=O)Cn3ccc(C4CC4)n3)nc2c1 [Example 142, (S)-2-(3-cyclopropyl-1H-pyrazol-1-yl)-N-(2-(3,5-difluorophenyl)-1-(7-(2-methoxyphenyl)-3-(4-(morpholinosulfonyl)phenyl)-4-oxo-3,4-dihydroquinazolin-2-yl)ethyl)acetamide] | 7.18 | > 1000
5 | Cc1ccccc1-c1ccc2c(=O)n(-c3ccc(S(=O)(=O)N4CCOCC4)cc3)c([C@H](Cc3cc(F)cc(F)c3)NC(=O)Cn3ccc(C4CC4)n3)nc2c1 [Example 143, (S)-2-(3-cyclopropyl-1H-pyrazol-1-yl)-N-(2-(3,5-difluorophenyl)-1-(3-(4-(morpholinosulfonyl)phenyl)-4-oxo-7-(o-tolyl)-3,4-dihydroquinazolin-2-yl)ethyl)acetamide] | 7.38 | > 1000
6 | O=C(Cn1ccc(C2CC2)n1)N[C@@H](Cc1cc(F)cc(F)c1)c1nc2cc(-c3ccccc3)ccc2c(=O)n1-c1ccc(S(=O)(=O)N2CCOCC2)cc1 [Example 144, (S)-2-(3-cyclopropyl-1H-pyrazol-1-yl)-N-(2-(3,5-difluorophenyl)-1-(3-(4-(morpholinosulfonyl)phenyl)-4-oxo-7-phenyl-3,4-dihydroquinazolin-2-yl)ethyl)acetamide] | 7.80 | > 500
7 | O=C(Cn1ccc(C2CC2)n1)N[C@@H](Cc1cc(F)cc(F)c1)c1nc2cc(-c3ccccc3Cl)ccc2c(=O)n1-c1ccc(S(=O)(=O)N2CCOCC2)cc1 [Example 145, (S)-N-(1-(7-(2-chlorophenyl)-3-(4-(morpholinosulfonyl)phenyl)-4-oxo-3,4-dihydroquinazolin-2-yl)-2-(3,5-difluorophenyl)ethyl)-2-(3-cyclopropyl-1H-pyrazol-1-yl)acetamide] | 7.80 | > 500
